This is an account of results in patent US20240400521A1, “QUINAZOLINE COMPOUND, COMPOSITION, AND APPLICATION THEREOF” (BEIJING SCITECH-MQ PHARMACEUTICALS LIMITED, priority 2021, published 2024).

Like-named read-outs stand apart in the source and are kept apart here.

Data set [1] addresses T1, EGFR^WT kinase (Homo sapiens, UniProt P00533).
T1 construct: purchased Carna Biosciences 08-115
The experiment in a line: EGFR^WT kinase assay (ULight peptide / Eu-PT66 antibody detection). The class given is biochemical. An excerpt: (§1) Reagents and consumables: ULight™-labeled Ploy GT Peptide (Perkin Elmer, Cat. No. TRF-0100-M); ULight™-labeled JAK-1 (Try1023) Peptide (Perkin Elmer, Cat. No. TRF-0121-M); Eu-W1024-labeled Anti-Phosphotyrosine Antibody (PT66) (Perkin Elmer, Cat. No. AD0068); 10×Detection Buffer (Perkin Elmer, Cat. No. CR97-100); HER2 Kinase (Carna Biosciences, Cat. No. 08-016); EGFR kinase (Carna Biosciences, Cat. No. 08-115); HEPES (GIBCO, Cat. No. 15630-080); EGTA (Sigma, Cat. No. 03777-10G); EDTA (Sigma, Cat. No. EDS-100G); MgCl2 (Sigma, Cat. No. 63069-100ML); DTT (Sigma, Cat. No. 43816-10ML); Tween-20 (Sigma, Cat. No. P7949-100ML); DMSO (Life Science, Cat. No. 0231-500ML); 384-well plates (Perkin Elmer, Cat. No. 607290); multifunctional plate reader (Perkin Elmer, Cat. No. Envision)
(§2) Preparation of compound solution: The assay compound was dissolved in DMSO to form a 10 mM stock solution. Prior to use, the compound was diluted to 0.25 mM in DMSO (100 times the final concentration of the diluent) and then subjected to a 3-fold concentration gradient dilution to obtain a total of 11 concentrations. The solution was diluted with buffer to a diluent with 4× the final concentration when the drug was added.
(§3) EGFR^WT kinase assay: buffer was prepared, and 3.48 nM 4× EGFR kinase solution, 600 μM 4× ATP solution, and 400 nM 4×ULight™-labeled JAK-1 (Try1023) Peptide substrate solution was prepared using the buffer. After the preparation was completed, the enzyme was mixed with different concentrations of compounds pre-prepared by dilution, and the mixture was left to stand at room temperature for 5 min. Each concentration was performed in duplicate. The corresponding substrate and ATP were added and the mixture was reacted at room temperature for 120 minutes (with negative and positive controls). After completion of the reaction, PT66 detection antibody was added. The mixture was incubated at room temperature for 60 minutes, and then detected by Envision.
(§4) Data Calculation: the reading of well and inhibition rate were calculated using Excel, wherein reading of well=10000*(well EU665 value)/(well EU615 value), and inhibition rate=[(reading of positive control well−reading of assay well)/(reading of positive control well−reading of negative control well)]*100%. Compound concentrations and corresponding inhibition rates were input into GraphPad Prism for processing to calculate IC50 values.

For data set [2], the target named is T2, HER2 kinase (Homo sapiens, UniProt P04626).
T2 construct: purchased Carna Biosciences 08-016
Put plainly: HER2 kinase assay (ULight peptide / Eu-PT66 antibody detection). Format: biochemical.
Description: as §1, §2
as §3, with “HER2 kinase” for “EGFR^WT kinase”, “and 40” for “and 3.48”, “4× HER2” for “4× EGFR”, “solution, 40” for “solution, 600”, “4×ULight™-labeled Ploy GT” for “4×ULight™-labeled JAK-1 (Try1023)”, “solution were” for “solution was”
as §4

Data set [3] can be described thus: Ability to penetrate the blood-brain barrier: brain and whole blood concentration in SD rats. The class given is in vivo. The note with it: rat. Here is the method:
In this assay, the pharmacokinetic characteristics and ability to penetrate the blood-brain barrier of the compounds of the present application were assayed after administration of some of the compounds of the present application to SD rats by single oral administration and intravenous injection.
• 1. Intravenous (IV) injection group: an appropriate amount of the assay compound was weighed, and completely dissolved in an appropriate volume of vehicle (DMSO/Solutol/H2O=5/10/85 V/V/V with 2 times mole of HCl). The mixture was stirred, vortexed and/or sonicated. Once a solution was obtained, the vehicle was gradually added to a final volume to reach the target concentration. The solution was vortexed, and sonicated to obtain a homogeneous solution. The solution was filtered through a 0.22 μm PVDF membrane. • 2. Oral (PO) group: an appropriate amount of the assay compound was weighed, and completely dissolved in an appropriate volume of vehicle (DMSO/Solutol/H2O=5/10/85 V/V/V with 2 times mole of HCl). The mixture was stirred, vortexed and/or sonicated. Once a solution was obtained, the vehicle was gradually added to a final volume to reach the target concentration. The solution was vortexed, and sonicated to obtain a homogeneous solution. (iii) Administration and Sampling of Rats
Meanwhile, the IV group was not fasted and the PO group was fasted overnight (>12 hrs) and given food 2 hrs after drug administration. All animals had free access to water. The dosing regimen and pharmacokinetic sampling regimen are given in Table 6 and Table 7 below, respectively.
Rats were administered according to the above regimen, and blood and brain tissue samples were collected and processed at predetermined time points (collection and processing were performed according to conventional methods in the art).
Brains were weighed and homogenized by adding 4-fold homogenizing solution (acetonitrile/water=1/1). Six times volume of acetonitrile was added respectively to the whole blood samples and brain homogenate. The mixture was vortexed for 1 min and then centrifuged at 4° C., 4500 rpm for 15 min. The supernatant was diluted 2-fold with ultra-pure water, and the samples were analyzed by LC/MS.

T2 sequence (P04626 23-1255): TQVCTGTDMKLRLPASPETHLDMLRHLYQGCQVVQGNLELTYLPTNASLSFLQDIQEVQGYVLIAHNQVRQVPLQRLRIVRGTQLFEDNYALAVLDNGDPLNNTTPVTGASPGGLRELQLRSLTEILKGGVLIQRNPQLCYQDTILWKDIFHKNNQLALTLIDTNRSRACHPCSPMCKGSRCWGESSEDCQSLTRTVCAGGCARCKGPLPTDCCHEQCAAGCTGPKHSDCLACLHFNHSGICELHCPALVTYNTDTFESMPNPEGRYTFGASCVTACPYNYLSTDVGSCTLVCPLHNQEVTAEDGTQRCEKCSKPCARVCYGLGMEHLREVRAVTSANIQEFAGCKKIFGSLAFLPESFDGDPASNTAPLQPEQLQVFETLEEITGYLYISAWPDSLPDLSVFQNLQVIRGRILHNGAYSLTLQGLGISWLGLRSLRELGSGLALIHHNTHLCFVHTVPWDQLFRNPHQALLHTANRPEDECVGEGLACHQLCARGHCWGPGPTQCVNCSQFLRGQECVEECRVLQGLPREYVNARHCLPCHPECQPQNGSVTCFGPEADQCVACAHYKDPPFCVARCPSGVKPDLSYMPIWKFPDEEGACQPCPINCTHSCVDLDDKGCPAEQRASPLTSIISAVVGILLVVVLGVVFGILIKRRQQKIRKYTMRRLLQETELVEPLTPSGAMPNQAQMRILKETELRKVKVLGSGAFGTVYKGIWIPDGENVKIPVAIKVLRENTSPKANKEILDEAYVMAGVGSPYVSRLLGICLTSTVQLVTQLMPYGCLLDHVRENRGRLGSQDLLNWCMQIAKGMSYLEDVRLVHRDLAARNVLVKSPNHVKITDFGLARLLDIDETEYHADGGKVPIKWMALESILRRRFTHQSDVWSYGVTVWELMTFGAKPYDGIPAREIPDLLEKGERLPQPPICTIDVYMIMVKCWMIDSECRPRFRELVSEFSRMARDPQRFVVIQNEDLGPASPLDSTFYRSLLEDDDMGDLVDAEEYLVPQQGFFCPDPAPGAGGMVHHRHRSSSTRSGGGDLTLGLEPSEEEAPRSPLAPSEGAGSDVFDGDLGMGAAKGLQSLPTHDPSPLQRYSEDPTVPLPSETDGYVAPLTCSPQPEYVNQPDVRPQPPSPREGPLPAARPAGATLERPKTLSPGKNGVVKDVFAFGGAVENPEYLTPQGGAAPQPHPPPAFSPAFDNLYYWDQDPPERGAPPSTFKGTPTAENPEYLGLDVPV
T1 sequence (P00533 25-1210): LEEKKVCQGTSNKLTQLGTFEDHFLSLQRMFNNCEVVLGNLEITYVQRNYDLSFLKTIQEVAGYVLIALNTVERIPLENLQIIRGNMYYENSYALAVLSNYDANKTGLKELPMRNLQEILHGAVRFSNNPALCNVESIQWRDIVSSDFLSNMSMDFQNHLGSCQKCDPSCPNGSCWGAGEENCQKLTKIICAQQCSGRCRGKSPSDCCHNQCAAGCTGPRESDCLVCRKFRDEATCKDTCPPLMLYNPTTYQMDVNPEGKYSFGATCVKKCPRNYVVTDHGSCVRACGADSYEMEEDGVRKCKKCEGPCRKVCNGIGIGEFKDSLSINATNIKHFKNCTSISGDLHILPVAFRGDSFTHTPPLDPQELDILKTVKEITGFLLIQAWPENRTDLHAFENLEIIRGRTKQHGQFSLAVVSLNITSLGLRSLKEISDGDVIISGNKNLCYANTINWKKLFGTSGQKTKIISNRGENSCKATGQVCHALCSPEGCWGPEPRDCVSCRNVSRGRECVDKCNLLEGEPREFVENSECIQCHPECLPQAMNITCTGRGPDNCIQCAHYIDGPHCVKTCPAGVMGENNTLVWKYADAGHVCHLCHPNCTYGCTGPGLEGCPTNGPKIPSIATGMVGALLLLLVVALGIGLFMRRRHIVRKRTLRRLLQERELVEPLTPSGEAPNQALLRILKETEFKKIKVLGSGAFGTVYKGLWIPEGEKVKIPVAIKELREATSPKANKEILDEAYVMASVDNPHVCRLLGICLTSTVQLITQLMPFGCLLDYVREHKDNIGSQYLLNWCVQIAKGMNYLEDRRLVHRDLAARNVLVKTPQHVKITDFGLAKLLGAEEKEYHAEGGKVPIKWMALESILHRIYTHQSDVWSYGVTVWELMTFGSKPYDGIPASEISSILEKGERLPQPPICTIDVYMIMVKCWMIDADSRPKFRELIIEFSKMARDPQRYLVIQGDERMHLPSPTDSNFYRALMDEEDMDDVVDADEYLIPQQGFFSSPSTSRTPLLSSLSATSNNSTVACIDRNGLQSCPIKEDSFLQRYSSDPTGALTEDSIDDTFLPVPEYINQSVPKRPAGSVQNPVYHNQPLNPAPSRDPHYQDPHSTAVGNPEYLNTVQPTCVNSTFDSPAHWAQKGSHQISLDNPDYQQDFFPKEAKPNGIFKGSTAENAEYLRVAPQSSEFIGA

Turning to `COc1c(NC(=O)/C=C/CN(C)C)ccc2ncnc(Nc3cccc(Cl)c3F)c12` [Example 1, (E)-N-(4-((3-chloro-2-fluorophenyl)amino)-5-methoxyquinazolin-6-yl)-4-(dimethylamino)but-2-enamide], the half-maximal inhibitory concentration (IC50) (as a rule, the concentration needed to halve the response being measured) in data set [1] is no more than 1 nM; in data set [2], 100 to 1000 nM. Moreover, the Kp at 2 hours in data set [3] (SD, brain/blood, PO 10 mg/kg, 2 hours after administration, read-out: Brain/blood ratio) worked out at 3.06. Also, the concentration at 2 hours was determined as 1470 ng/g in data set [3] (SD, brain, PO 10 mg/kg, 2 hours after administration, read-out: Brain concentration) and 480 ng/mL in data set [3] (SD, plasma, PO 10 mg/kg, 2 hours after administration, read-out: Plasma drug concentration). In data set [3], the “ability to penetrate the blood-brain barrier (in words)” value is recorded as “excellent ability to penetrate the blood-brain barrier”.
